Results on 23 molecules are retold here after patent US12622917B2, “High-activity Wnt pathway inhibitor compound” (ADLAI NORTYE BIOPHARMA CO., LTD., priority 2020, dated 2026).

Read-outs that look alike come from different tables or passages of the source.

In general, IC50 refers to the concentration that gives 50% inhibition.

Assay type in all cases: cell-based
In assay [1] the test system is DU4475. Description: Proliferation inhibition, Wnt mutant cell line DU4475. The following applies: DU4475, Wnt pathway-dependent, 96 hours, read-out: Antiproliferative IC50 DU4475. The method in brief: (§1)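 IC50 for growth inhibition came from a 96-hour incubation with serially diluted compound (3-fold, top 20 uM final), with cells seeded at 1000 per well the day before and read by a Promega viability assay.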

For assay [2], the system named is Hela. Briefly: Proliferation inhibition, non-Wnt mutant control cell line Hela. The note with it: Wnt-independent control cell line, 96 hours, read-out: Antiproliferative IC50 Hela. The text has this:
The cell lines used in the experiment are Colo205 and DU4475 cell lines whose Wnt pathway is continuously activated and whose proliferation is Wnt pathway-dependent; while the BELA and RKO cell lines, whose Wnt pathway is not activated under normal circumstances and the proliferation is independent of Wnt pathway, as control cell lines. It is Judged that the inhibitory effect of the compound of the present invention on Wnt-dependent proliferation is not caused by other non-specific toxicity.
Treat the Colo205, Du4475, HELA and RKO cell lines cultured in their respective mediums in the logarithmic growth phase, collect the cells and prepare a uniform cell suspension of known concentration, and then add it to the 96-well cell culture plate Cell suspension, so that each well contains 1000 cells. Put it into a 5% CO2 incubator and incubate at 37° C. for 20-24 h. On the second day, the fully dissolved, 3-fold serially diluted compound was added to each cell culture well, so that the final maximum concentration in the cell culture well was 20 uM, and the culture was continued for 96 hours. In this test, Promega's cell viability detection test is used for detection. The more the cells proliferate, the stronger the final signal intensity will be. The detection instrument is SpectraMax, full wavelength mode. The wells only added with DMSO were used as positive control wells, and the wells that were not inoculated with cells were used as negative control wells. […] The IC50 value of cell proliferation inhibition was used to evaluate the inhibitory effect of the compound on the Wnt pathway and the toxic effect on normal cells (Table 2).

Assay [3] concerns Colo205. Briefly: Proliferation inhibition, Wnt mutant cell line Colo205. The following applies: Colo205, Wnt pathway-dependent, 96 hours, read-out: Antiproliferative IC50 Colo205. The essentials:
as §1

For assay [4], the system named is Colo205-LUC-TCF/LEF M1 reporter cell line (Wnt pathway). Briefly: Colo205-LUC-TCF/LEF M1 reporter gene (luciferase) inhibition. The note with it: 4 hours incubation, luciferase readout. The method in brief:
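Luminescent readout of TCF/LEF-regulated luciferase after a 4 h, 37° C compound exposure in a stable Colo205 reporter clone (10,000 cells/well). Serial 3-fold dilutions started at 20 uM; IC50 derived using DMSO-treated cells and no-cell wells as controls.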
In general terms: Reporter assays use an easily measured gene product as a stand-in for the process of interest.

For assay [5], the system named is RKO. Briefly: Proliferation inhibition, non-Wnt mutant control cell line RKO. The note with it: Wnt-independent control cell line, 96 hours, read-out: Antiproliferative IC50 RKO. The essentials: as §1

For “(S)-6,7-dimethyl-4-(((1-((6-(trifluoromethyl)pyridin-3-yl)methyl)-1H-pyrazol-4-yl)methyl)amino)-7,8-dihydro-3,5,6,9a-tetraazabenzo[cd]azulene-9(6H)-one [Example 6]”, the IC50 in assay [1] was 59 nM; in assay [2] it was greater than 10000 nM; in assay [3] it was 46 nM; in assay [4], 57 nM; in assay [5], greater than 10000 nM.

Regarding `Cc1cn2c3c(nc(NCc4cnn(Cc5ccc(F)cc5)c4)nc13)N(C)[C@@H](C)C2` [65 (W32)], the IC50 came out at 41.7 nM in assay [1] (Homo sapiens, DU-4475); 3490 nM in assay [2] (Homo sapiens); 43.5 nM in assay [3] (Homo sapiens, COLO 205); 20 nM in assay [4]; 1720 nM in assay [5] (Homo sapiens).

As to `C[C@H]1Cn2ccc3nc(NCc4cnn(CC5CCC(F)(F)CC5)c4)nc(c32)N1C` [83 (W116)], the IC50 in assay [1] (Homo sapiens, DU-4475) is 5.1 nM; in assay [2] (Homo sapiens), 4900 nM; in assay [3] (Homo sapiens, COLO 205), 5.1 nM; in assay [4], 10 nM; in assay [5] (Homo sapiens), 7470 nM.

`[2H]c1cc2nc(NCc3cnn(Cc4ccc(C(F)(F)F)nc4)c3)nc3c2n1C[C@H](C)N3C` [72 (W57)]: the 50% inhibitory concentration (IC50) is 2.8 nM in assay [1] (Homo sapiens, DU-4475); greater than 10000 nM in assay [2] (Homo sapiens); 4.8 nM in assay [3] (Homo sapiens, COLO 205); 7 nM in assay [4]; 3230 nM in assay [5] (Homo sapiens).

`CN1c2nc(NCc3cnn(Cc4ccc(C(F)(F)F)nc4)c3)nc3ccn(c23)CC1CC(F)(F)F` (stereo not shown) [87 (W136)]: the IC50 in assay [1] (Homo sapiens, DU-4475) worked out at 5.4 nM; in assay [2] (Homo sapiens), 2920 nM; in assay [3] (Homo sapiens, COLO 205) it was 6.7 nM; in assay [4], 7 nM; in assay [5] (Homo sapiens), 3980 nM.

In the case of `C[C@H]1Cn2ccc3nc(NCc4ccc(OCc5ccccc5)cc4)nc(c32)N1C` [74 (W69)], the IC50 in assay [1] (Homo sapiens, DU-4475) was 46 nM; in assay [2] (Homo sapiens), 5510 nM; in assay [3] (Homo sapiens, COLO 205), 39 nM; in assay [4] it was 10 nM; in assay [5] (Homo sapiens), 1690 nM.

For `C[C@H]1Cn2ccc3nc(NCc4cnn(Cc5ccc(F)cc5)c4)nc(c32)N1C` [61 (W2)], the IC50 in assay [1] (Homo sapiens, DU-4475) was 11.8 nM; in assay [2] (Homo sapiens) it was 4170 nM; in assay [3] (Homo sapiens, COLO 205) it was 5.5 nM; in assay [4], 2 nM; in assay [5] (Homo sapiens), 3440 nM.

For the molecule `C[C@H]1C(=O)N2CCCc3nc(NCc4ccc(Oc5ccc(C(F)(F)F)nc5)cc4)nc(c32)N1C` [101 (W213)], the IC50 is 73 nM in assay [1] (Homo sapiens, DU-4475); 6980 nM in assay [2] (Homo sapiens); 86 nM in assay [3] (Homo sapiens, COLO 205); 47 nM in assay [4]; 3930 nM in assay [5] (Homo sapiens).

Consider `C[C@H]1Cn2ccc3nc(NCc4ccc(Oc5ccc(C(F)(F)F)nc5)nc4)nc(c32)N1C` [77 (W86)], for which the IC50 was found to be 5.1 nM in assay [1] (Homo sapiens, DU-4475); 2920 nM in assay [2] (Homo sapiens); 4.7 nM in assay [3] (Homo sapiens, COLO 205); 8 nM in assay [4]; 4010 nM in assay [5] (Homo sapiens).

Take `CN1c2nc(NCc3cnn(CC(F)(F)F)c3)nc3ccn(c23)CC1(C)C` [84 (W123)]: the IC50 in assay [1] (Homo sapiens, DU-4475) came to 36 nM; in assay [2] (Homo sapiens), 4760 nM; in assay [3] (Homo sapiens, COLO 205), 41 nM; in assay [4], 17 nM; in assay [5] (Homo sapiens), 5540 nM.

`C[C@H]1Cn2ccc3nc(NCc4cnn(Cc5ccc(F)cc5)c4)nc(c32)N1CCO` [62 (W13)]: the IC50 in assay [1] (Homo sapiens, DU-4475) was 13.5 nM; in assay [2] (Homo sapiens), 7200 nM; in assay [3] (Homo sapiens, COLO 205), 13.3 nM; in assay [4] it was 14 nM; in assay [5] (Homo sapiens), 6540 nM.

For the molecule `C[C@H]1C(=O)N2CCCc3nc(NCc4ccc(Oc5cncc(C(F)(F)F)c5)nc4)nc(c32)N1C` [99 (W193)], the IC50 in assay [1] (Homo sapiens, DU-4475) is 21 nM; in assay [2] (Homo sapiens), greater than 10000 nM; in assay [3] (Homo sapiens, COLO 205), 12 nM; in assay [4], 27 nM; in assay [5] (Homo sapiens), greater than 10000 nM.

As for `CC(C)N1C[C@H](C)n2ccc3nc(NCc4cnn(Cc5ccc(C(F)(F)F)nc5)c4)nc1c32` [Example 23, (S)-4-isopropyl-6-methyl-N-((1-((6-(trifluoromethyl)pyridin-3-yl)methyl)-1H-pyrazol-4-yl)methyl)-5,6-dihydro-4H-pyrrolo[3,2,1-de]pteridin-2-amine], the IC50 was 15 nM in assay [1] (Homo sapiens, DU-4475); greater than 10000 nM in assay [2] (Homo sapiens); 16 nM in assay [3] (Homo sapiens, COLO 205); 11 nM in assay [4]; 3380 nM in assay [5] (Homo sapiens).

On to `C[C@H]1CN(C2CC2)c2nc(NCc3cnn(Cc4ccc(C(F)(F)F)nc4)c3)nc3ccn1c23` [90 (W152)], for which the 50% inhibitory concentration (IC50) in assay [1] (Homo sapiens, DU-4475) was 37 nM; in assay [2] (Homo sapiens), greater than 10000 nM; in assay [3] (Homo sapiens, COLO 205), 42 nM; in assay [4], 24 nM; in assay [5] (Homo sapiens), 5660 nM.

Regarding `C[C@H]1Cn2ccc3nc(NCc4cnn(Cc5ccc(C(F)(F)F)nc5)c4)nc(c32)N1CC(F)(F)F` [70 (W55)], the IC50 in assay [1] (Homo sapiens, DU-4475) amounted to 13.1 nM; in assay [2] (Homo sapiens) it was 1410 nM; in assay [3] (Homo sapiens, COLO 205), 13.1 nM; in assay [4], 12 nM; in assay [5] (Homo sapiens), 1730 nM.

Turning to `C[C@H]1Cn2ccc3nc(NCc4ccc(Oc5ccccc5)cc4)nc(c32)N1C` [67 (W46)], the IC50 was 62.5 nM in assay [1] (Homo sapiens, DU-4475); 1090 nM in assay [2] (Homo sapiens); 60.4 nM in assay [3] (Homo sapiens, COLO 205); 34 nM in assay [4]; 1180 nM in assay [5] (Homo sapiens).

For `C[C@H]1CN(C)c2nc(NCc3cnn(Cc4ccc(C(F)(F)F)nc4)c3)nc3cc(C(F)F)n1c23` [Example 21, (S)-8-(difluoromethyl)-4,6-dimethyl-N-((1-((6-(trifluoromethyl)pyridin-3-yl)methyl)-1H-pyridine Azol-4-yl)methyl)-5,6-dihydro-4H-pyrrolo[3,2,1-de]pteridin-2-amine], the IC50 in assay [1] (Homo sapiens, DU-4475) was 73 nM; in assay [2] (Homo sapiens), greater than 10000 nM; in assay [3] (Homo sapiens, COLO 205) it was 97 nM; in assay [4], 30 nM; in assay [5] (Homo sapiens) it was 3030 nM.

As for `[2H]C1([2H])[C@H](COC)N(C)c2nc(NCc3cnn(Cc4ccc(C(F)(F)F)nc4)c3)nc3ccn1c23` [Example 24, (R)-5-(methoxymethyl)-4-methyl-N-((1-((6-(trifluoromethyl)pyridin-3-yl)methyl)-1H-pyrazole-4-yl)methyl)-5,6-dihydro-4H-pyrrolo[3,2,1-de]pteridin-6,6-d2-2-amine], the IC50 in assay [1] (Homo sapiens, DU-4475) is 9.7 nM; in assay [2] (Homo sapiens), greater than 10000 nM; in assay [3] (Homo sapiens, COLO 205), 9 nM; in assay [4] it was 13 nM; in assay [5] (Homo sapiens), greater than 10000 nM.

On to `CN1c2nc(NCc3cnn(Cc4ccc(C(F)(F)F)nc4)c3)nc3ccn(c23)C[C@@H]1CO` [71 (W56)], for which the IC50 in assay [1] (Homo sapiens, DU-4475) was 16.7 nM; in assay [2] (Homo sapiens), greater than 10000 nM; in assay [3] (Homo sapiens, COLO 205), 13.5 nM; in assay [4], 20 nM; in assay [5] (Homo sapiens) it was greater than 10000 nM.

As for `C[C@H]1Cn2ccc3nc(NCc4ccc(OCCOCC(F)(F)F)nc4)nc(c32)N1C` [79 (W95)], the IC50 worked out at 23.7 nM in assay [1] (Homo sapiens, DU-4475); 3670 nM in assay [2] (Homo sapiens); 43.9 nM in assay [3] (Homo sapiens, COLO 205); 20 nM in assay [4]; 6890 nM in assay [5] (Homo sapiens).

Consider `C[C@H]1C(=O)N2CCCc3nc(NCc4ccc(Oc5ccnc(C(F)(F)F)c5)nc4)nc(c32)N1C` [100 (W239)], for which the IC50 in assay [1] (Homo sapiens, DU-4475) was 52 nM; in assay [2] (Homo sapiens), greater than 10000 nM; in assay [3] (Homo sapiens, COLO 205), 59 nM; in assay [4] it was 50 nM; in assay [5] (Homo sapiens), greater than 10000 nM.

Consider `COC[C@H]1C(=O)N2CCCc3nc(NCc4ccc(Oc5ccc(C(F)(F)F)nc5)nc4)nc(c32)N1C` [106 (W190), (S)-5-(methoxymethyl)-4-methyl-2-(((6-((6-(trifluoromethyl)pyridin-3-yl)oxo)pyridin-3-yl)methyl)amino)-4,5,9,10-tetrahydro-6H,8H-pyrido[3,2,1-de]pteridin-6-one], for which the IC50 was 46 nM in assay [1] (Homo sapiens, DU-4475); greater than 10000 nM in assay [2] (Homo sapiens); 30 nM in assay [3] (Homo sapiens, COLO 205); 54 nM in assay [4]; greater than 10000 nM in assay [5] (Homo sapiens).

`C[C@H]1CN(C)c2nc(NCc3cnn(Cc4ccc(C(F)(F)F)nc4)c3)nc3ccn1c23` [Example 19, (S)-4,6-dimethyl-N-((1-((6-(trifluoromethyl)pyridin-3-yl)methyl)-1H-pyrazol-4-yl)methyl)-5,6-dihydro-4H-pyrrolo[3,2,1-de]pteridin-2-amine]: the IC50 in assay [1] (Homo sapiens, DU-4475) was 9 nM; in assay [2] (Homo sapiens) it was greater than 10000 nM; in assay [3] (Homo sapiens, COLO 205) it was 8 nM; in assay [4] it was 9 nM; in assay [5] (Homo sapiens) it was greater than 10000 nM.
